# Laboratory results published in patent US20120208809A1, “9H-PYRROLO[2,3-B: 5,4-C'] DIPYRIDINE AZACARBOLINE DERIVATIVES, PREPARATION THEREOF, AND THERAPEUTIC USE THEREOF” (SANOFI, priority 2009, published 2012).
# Columns and labels:
# CDK1 = CDK1 (Homo sapiens, UniProt P06493); experiment: Biochemical results, IC50 CDK1
# PLK1 = PLK1 (Homo sapiens, UniProt P53350); experiment: Biochemical results, IC50 PLK1
# Pim-2 = biological target: T1, Pim-2 (Homo sapiens, UniProt Q9P1W9); experiment: TR-FRET assay of Pim kinase activity (phosphorylation of Bad Ser112), Pim-2; assay type: biochemical; conditions: ATP 40 μM, read-out: IC50 Pim2
# T1 construct: full-length human recombinant His6-labelled Pim-1, Pim-2 or Pim-3 protein; His6; made in house
# T1 sequence (Q9P1W9 whole entry): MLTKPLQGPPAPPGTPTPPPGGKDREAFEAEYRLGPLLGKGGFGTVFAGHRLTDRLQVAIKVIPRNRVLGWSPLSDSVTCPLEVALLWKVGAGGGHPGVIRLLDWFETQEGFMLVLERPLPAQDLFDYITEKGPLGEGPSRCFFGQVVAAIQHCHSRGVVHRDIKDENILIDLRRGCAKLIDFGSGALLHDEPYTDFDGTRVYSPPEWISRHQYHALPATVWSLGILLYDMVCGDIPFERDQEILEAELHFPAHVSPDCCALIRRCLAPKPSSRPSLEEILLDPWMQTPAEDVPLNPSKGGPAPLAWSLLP
# Protocol: (§1) In order to determine the inhibition of Pim kinase activity, the compounds of the invention are tested in accordance with a routinely-used in-vitro TR-FRET assay (“Time Resolved-Fluorescence Resonance Energy Transfer”). […] For the assay, the following reagents are used:
# (§2) Pim kinase—full-length human recombinant His6-labelled Pim-1, Pim-2 or Pim-3 protein (prepared according to J. Mol. Biol. (2005) 348, 183-193); Bad—full-length human recombinant His6-labelled Bad protein (prepared according to J. Mol. Biol. (2005) 348, 183-193); α-His6-APC—mouse monoclonal antibody conjugated to allophycocyanine SureLight™ directed against the His6 label (Perkin-Elmer, No. AD0059H, Waltham, Mass., United States); α-P˜Bad-Eu—mouse monoclonal antibody (Cell Signaling Technology #9296B, Danvers, Mass., United States) directed against phosphoBad (Ser112) (7E11) labelled on request by Perkin-Elmer with the reagent LANCE™ Eu-W1024.
# (§3) The assay is based on the LANCE™ technology from Perkin-Elmer: the Eu-labelled antibody binds to phospho-Ser112 and generates a TR-FRET signal by interaction with the […] antibody directed against His6, bound to the His6 label of Bad. The TR-FRET signal is detected using a SpectraMax M5 plate reader (Molecular Devices) with the following settings: λex=340 nm, λem1=615 nm, λem2=665 nm. The ratio of the fluorescence signal at 665 nm to the fluorescence signal at 615 nm is used as the signal reading for the IC50 (calculations based on the 4-parameter logistic model). The assay is performed in 384-well format; the liquid manipulations are performed using a Beckmann 3000 liquid manipulation station. The test compounds are tested at 10 concentration points in duplicate; the highest concentration of compound is typically equal to 30 μM. The ATP concentration is equal to 40 μM.
# Pim-1 = biological target: T2, Pim-1 (Homo sapiens, UniProt P11309); experiment: TR-FRET assay of Pim kinase activity (phosphorylation of Bad Ser112), Pim-1; assay type: biochemical; conditions: ATP 40 μM, read-out: IC50 Pim1
# T2 construct: full-length human recombinant His6-labelled Pim-1, Pim-2 or Pim-3 protein; His6; made in house
# T2 sequence (P11309 whole entry): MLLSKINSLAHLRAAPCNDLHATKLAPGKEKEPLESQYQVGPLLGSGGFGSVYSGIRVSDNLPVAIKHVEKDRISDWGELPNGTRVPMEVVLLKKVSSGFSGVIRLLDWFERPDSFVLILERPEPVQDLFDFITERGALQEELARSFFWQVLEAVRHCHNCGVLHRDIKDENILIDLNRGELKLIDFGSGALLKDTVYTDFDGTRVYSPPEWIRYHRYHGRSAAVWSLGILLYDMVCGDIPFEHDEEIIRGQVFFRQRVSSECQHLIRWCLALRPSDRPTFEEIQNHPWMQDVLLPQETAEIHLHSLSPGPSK
# Protocol: as §1, §2, §3
# Pim-3 = biological target: T3, Pim-3 (Homo sapiens, UniProt Q86V86); experiment: TR-FRET assay of Pim kinase activity (phosphorylation of Bad Ser112), Pim-3; assay type: biochemical; conditions: ATP 40 μM, read-out: IC50 Pim3
# T3 construct: full-length human recombinant His6-labelled Pim-1, Pim-2 or Pim-3 protein; His6; made in house
# Protocol: as §1, §2, §3
# Chain of PLK1 (P53350 whole entry, species assumed): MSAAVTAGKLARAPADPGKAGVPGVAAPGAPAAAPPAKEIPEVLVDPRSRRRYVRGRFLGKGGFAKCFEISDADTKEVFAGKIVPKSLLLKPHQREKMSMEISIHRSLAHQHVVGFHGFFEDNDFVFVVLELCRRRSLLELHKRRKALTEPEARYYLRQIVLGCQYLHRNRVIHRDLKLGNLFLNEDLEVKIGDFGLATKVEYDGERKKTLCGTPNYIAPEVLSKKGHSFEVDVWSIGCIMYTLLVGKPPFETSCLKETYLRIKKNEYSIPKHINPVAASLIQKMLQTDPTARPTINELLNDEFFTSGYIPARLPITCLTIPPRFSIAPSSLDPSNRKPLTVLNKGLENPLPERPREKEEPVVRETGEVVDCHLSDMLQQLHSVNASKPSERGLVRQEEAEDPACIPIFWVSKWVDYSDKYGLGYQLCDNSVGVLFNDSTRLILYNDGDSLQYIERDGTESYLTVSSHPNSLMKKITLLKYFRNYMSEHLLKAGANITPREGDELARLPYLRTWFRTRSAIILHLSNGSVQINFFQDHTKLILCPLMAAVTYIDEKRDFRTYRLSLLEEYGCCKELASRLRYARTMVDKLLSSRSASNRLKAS
# Chain of CDK1 (P06493 whole entry, species assumed): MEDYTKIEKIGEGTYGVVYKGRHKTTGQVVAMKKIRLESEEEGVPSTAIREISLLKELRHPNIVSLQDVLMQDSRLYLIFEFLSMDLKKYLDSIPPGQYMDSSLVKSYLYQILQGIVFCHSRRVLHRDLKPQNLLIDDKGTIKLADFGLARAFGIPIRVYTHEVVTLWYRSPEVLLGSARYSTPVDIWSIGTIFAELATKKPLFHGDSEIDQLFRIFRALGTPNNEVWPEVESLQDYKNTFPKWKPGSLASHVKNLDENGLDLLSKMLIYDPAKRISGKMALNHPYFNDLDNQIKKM
# Chain of CDK1 (P14635 whole entry partner, species assumed): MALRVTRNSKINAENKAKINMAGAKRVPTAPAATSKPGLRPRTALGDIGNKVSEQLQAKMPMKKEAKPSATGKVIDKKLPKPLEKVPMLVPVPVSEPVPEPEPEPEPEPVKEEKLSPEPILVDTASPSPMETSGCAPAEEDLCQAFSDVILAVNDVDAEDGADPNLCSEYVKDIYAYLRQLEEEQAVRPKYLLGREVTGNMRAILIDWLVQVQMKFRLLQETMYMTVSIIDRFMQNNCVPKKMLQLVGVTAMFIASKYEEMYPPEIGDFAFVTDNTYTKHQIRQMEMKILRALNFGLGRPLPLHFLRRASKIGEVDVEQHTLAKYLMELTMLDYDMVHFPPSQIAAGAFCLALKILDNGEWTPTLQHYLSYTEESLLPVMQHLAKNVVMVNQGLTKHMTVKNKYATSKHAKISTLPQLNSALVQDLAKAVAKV
IC50 (CDK1) [nM],IC50 (PLK1) [nM],IC50 (Pim-2) [nM],IC50 (Pim-1) [nM],IC50 (Pim-3) [nM],Compound
100 to 1000,< 100,> 5000,100 to 1000,100 to 1000,"O=C(NCCNc1ccccc1)c1ccc(-c2c(F)cnc3[nH]c4cnc(-c5cccnc5)cc4c23)cc1 [Example 50, 4-[3-fluoro-6-(pyridin-3-yl)-9H-pyrrolo[2,3-b:5,4-c′]dipyridin-4-yl]-N-[2-(phenylamino)ethyl]benzamide]"
1000 to 5000,100 to 1000,1000 to 5000,< 100,< 100,"CN1CCC(N(C)C(=O)c2ccc(-c3c(F)cnc4[nH]c5cnc(-c6cccnc6)cc5c34)cc2)CC1 [Example 81, 4-[3-fluoro-6-(pyridin-3-yl)-9H-pyrrolo[2,3-b:5,4-c′]dipyridin-4-yl]-N-methyl-N-(1-methylpiperidin-4-yl)benzamide]"
1000 to 5000,1000 to 5000,1000 to 5000,< 100,100 to 1000,"CN1CCC(N(C)C(=O)c2ccc(-c3c(F)cnc4[nH]c5cnc(-c6cccnc6)cc5c34)cc2)C1 (stereo not shown) [Example 70, 4-[3-fluoro-6-(pyridin-3-yl)-9H-pyrrolo[2,3-b:5,4-c′]dipyridin-4-yl]-N-methyl-N-(1-methylpyrrolidin-3-yl)benzamide]"
100 to 1000,100 to 1000,100 to 1000,< 100,< 100,"CCN1CCCC(NC(=O)c2ccc(-c3c(F)cnc4[nH]c5cnc(-c6cccnc6)cc5c34)cc2)C1 (stereo not shown) [Example 54, N-(1-ethylpiperidin-3-yl)-4-[3-fluoro-6-(pyridin-3-yl)-9H-pyrrolo[2,3-b:5,4-c′]dipyridin-4-yl]benzamide]"
100 to 1000,< 100,> 5000,100 to 1000,100 to 1000,"O=C(NCc1nnn[nH]1)c1ccc(-c2c(F)cnc3[nH]c4cnc(-c5cccnc5)cc4c23)cc1 [Example 45, 4-[3-fluoro-6-(pyridin-3-yl)-9H-pyrrolo[2,3-b:5,4-c′]dipyridin-4-yl]-N-(1H-tetrazol-5-ylmethyl)benzamide]"
100 to 1000,100 to 1000,100 to 1000,< 100,< 100,"O=C(NCCN1CCCCCC1)c1ccc(-c2c(F)cnc3[nH]c4cnc(-c5cccnc5)cc4c23)cc1 [Example 60, N-[2-(azepan-1-yl)ethyl]-4-[3-fluoro-6-(pyridin-3-yl)-9H-pyrrolo[2,3-b:5,4-c′]dipyridin-4-yl]benzamide]"
1000 to 5000,1000 to 5000,1000 to 5000,< 100,< 100,"CN1CCC2(CCN(C(=O)c3ccc(-c4c(F)cnc5[nH]c6cnc(-c7cccnc7)cc6c45)cc3)C2)C1 (stereo not shown) [Example 77, {4-[3-fluoro-6-(pyridin-3-yl)-9H-pyrrolo[2,3-b:5,4-c′]dipyridin-4-yl]phenyl}(7-methyl-2,7-diazaspiro[4.4]non-2-yl)methanone]"
100 to 1000,100 to 1000,< 100,< 100,< 100,"CN1C[C@@H]2CCN(C(=O)c3ccc(-c4c(F)cnc5[nH]c6cnc(-c7cccnc7)cc6c45)cc3)[C@@H]2C1 [Example 47, {4-[3-fluoro-6-(pyridin-3-yl)-9H-pyrrolo[2,3-b:5,4-c′]dipyridin-4-yl]phenyl}[(3aS,6aS)-5-methylhexahydropyrrolo[3,4-b]pyrrol-1(2H)-yl]methanone]"
1000 to 5000,100 to 1000,100 to 1000,< 100,< 100,"CCN1CCC[C@H]1CNC(=O)c1ccc(-c2c(F)cnc3[nH]c4cnc(-c5cccnc5)cc4c23)cc1 [Example 53, N-{[(2S)-1-ethylpyrrolidin-2-yl]methyl}-4-[3-fluoro-6-(pyridin-3-yl)-9H-pyrrolo[2,3-b:5,4-c′]dipyridin-4-yl]benzamide]"
1000 to 5000,100 to 1000,< 100,< 100,< 100,"CCN(CCN(C)C)C(=O)c1ccc(-c2c(F)cnc3[nH]c4cnc(-c5cccnc5)cc4c23)cc1 [Example 67, N-[2-(dimethylamino)ethyl]-N-ethyl-4-[3-fluoro-6-(pyridin-3-yl)-9H-pyrrolo[2,3-b:5,4-c′]dipyridin-4-yl]benzamide]"

# The next lines start with the compound.
Compound,IC50 (CDK1) [nM],IC50 (PLK1) [nM],IC50 (Pim-2) [nM],IC50 (Pim-1) [nM],IC50 (Pim-3) [nM]
"CNCCNC(=O)c1ccc(-c2c(F)cnc3[nH]c4cnc(-c5cccnc5)cc4c23)cc1 [Example 88, 4-[3-fluoro-6-(pyridin-3-yl)-9H-pyrrolo[2,3-b:5,4-c′]dipyridin-4-yl]-N-[2-(methylamino)ethyl]benzamide]",100 to 1000,100 to 1000,< 100,< 100,< 100
"CN(C)C1CCCN(C(=O)c2ccc(-c3c(F)cnc4[nH]c5cnc(-c6cccnc6)cc5c34)cc2)C1 (stereo not shown) [Example 57, [3-(dimethylamino)piperidin-1-yl]{4-[3-fluoro-6-(pyridin-3-yl)-9H-pyrrolo[2,3-b:5,4-c′]dipyridin-4-yl]phenyl}methanone]",100 to 1000,100 to 1000,1000 to 5000,< 100,< 100
"O=C(c1ccc(-c2c(F)cnc3[nH]c4cnc(-c5cccnc5)cc4c23)cc1)N1CCC(N2CCCC2)C1 (stereo not shown) [Example 80, 1.3′-bipyrrolidin-1′-yl{4-[3-fluoro-6-(pyridin-3-yl)-9H-pyrrolo[2,3-b:5,4-c′]dipyridin-4-yl]phenyl}methanone]",100 to 1000,100 to 1000,100 to 1000,< 100,< 100
"Cn1cc(-c2cc3c(cn2)[nH]c2ncc(F)c(-c4ccc(C(N)=O)cc4)c23)cn1 [Example 104, 4-[3-fluoro-6-(1-methyl-1H-pyrazol-4-yl)-9H-pyrrolo[2,3-b:5,4-c′]dipyridin-4-yl]benzamide]",100 to 1000,100 to 1000,100 to 1000,< 100,< 100
"CN1CCN(NC(=O)c2ccc(-c3c(F)cnc4[nH]c5cnc(-c6cnn(C)c6)cc5c34)cc2)CC1 [Example 99, 4-[3-fluoro-6-(1-methyl-1H-pyrazol-4-yl)-9H-pyrrolo[2,3-b:5,4-c′]dipyridin-4-yl]-N-(4-methylpiperazin-1-yl)benzamide]",1000 to 5000,> 5000,100 to 1000,< 100,< 100
"CC(=O)NCCNC(=O)c1ccc(-c2c(F)cnc3[nH]c4cnc(-c5cccnc5)cc4c23)cc1 [Example 48, N-[2-(acetylamino)ethyl]-4-[3-fluoro-6-(pyridin-3-yl)-9H-pyrrolo[2,3-b:5,4-c′]dipyridin-4-yl]benzamide]",100 to 1000,< 100,1000 to 5000,< 100,100 to 1000
"CN1CC2CCN(C(=O)c3ccc(-c4c(F)cnc5[nH]c6cnc(-c7cccnc7)cc6c45)cc3)CC2C1 (stereo not shown) [Example 74, {4-[3-fluoro-6-(pyridin-3-yl)-9H-pyrrolo[2,3-b:5,4-c′]dipyridin-4-yl]phenyl}(2-methyloctahydro-5H-pyrrolo[3,4-c]pyridin-5-yl)methanone]",1000 to 5000,100 to 1000,100 to 1000,< 100,< 100
